Assay results from patent US20160108049A1 (TAKEDA Gmbh, priority 2011, published 2016).

Key:
human PDE5 = target: T1, human PDE5 (Homo sapiens, UniProt O76074); experiment: Inhibition of PDE5 activity (platelet lysate, SPA assay); format: biochemical; conditions: 0.5 μM cGMP, read-out: PDE5 Inhibitory values measured as -logIC50 (converted)
T1 construct: from tissue; host or cells: human platelets from fresh donor blood (platelet lysate)
Experimental: Method for Measuring Inhibition of PDE5 Activity
As a source for human PDE5, platelets were used. For that purpose, 150 ml fresh blood from human donors anticoagulated with citrate [final concentration 0.3% (w/v)] was centrifuged at 200 g for 10 min to obtain the so-called platelet-rich-plasma (PRP) as a supernatant. […] After centrifugation (1,400 g, 10 min) the cell pellet was resuspended in 3 ml homogenization buffer (NaCl 140 mM, KCl 3.8 mM, EGTA (ethylene glycol tetraacetic acid) 1 mM, MgCl2 1 mM, Tris-HCl 20 mM, beta-mercaptoethanol 1 mM, pH 8.2) plus protease-inhibitor mix resulting in final concentrations of 0.5 mM Pefablock (Roche), 10 μM Leupeptin, 5 μM Trypsine inhibitor, 2 mM Benzamidin and 10 μM Pepstatin A. The suspension was sonicated and thereafter centrifuged for 15 min at 10,000 g. The resulting supernatant (platelet lysate) was used for enzymatic assays.
PDE5 activities were measured in a 96-well platform using SPA (scintillation proximity assay) yttrium silicate beads (RPNQ1050 from GE Healthcare). In a first step the PDE activity operated hydrolysis of either [^3H] cGMP (substrate) into [^3H] 5′GMP. In a second step substrate and product were distinguished following addition of SPA yttrium silicate beads. Indeed, in the presence of zinc sulphate the linear [^3H] […] Close proximity of bound [^3H] […] The test volume was 100 μl and contained 20 mM Tris buffer (pH 7.4), 0.1 mg of BSA (bovine serum albumin)/ml, 5 mM Mg^2+, 1 μM motapizone (PDE3 Inhibitor), 10 nM PDE2 inhibitor 2-(3,4-dimethoxybenzyl)-7-[(1R,2R)-2-hydroxy-1-(2-phenylethyl)propyl]-5-methylimidazo[5,1-f][1,2,4]triazin-4(3H)-one, 0.5 μM cGMP (cyclic guanosine monophosphate) (including about 50,000 cpm of [3H]cGMP as a tracer) (substrate), 1 μl of the respective compound dilution in dimethylsulfoxide (DMSO) and sufficient PDE5-containing platelet lysat (10,000×g supernatant, see above) to ensure that 10-20% of the cGMP was converted under the said experimental conditions. […] After a preincubation of 5 min at 37° C., the reaction was commenced by adding the substrate (cGMP) and the assay was incubated for a further 15 min. The reaction was terminated by adding SPA beads (50 μl). In agreement with the manufacturer's instructions, the SPA beads had previously been resuspended in water, but were then diluted 1:3 (v/v) in water. This diluted solution also contained 3 mM 8-methoxymethyl-3-isobutyl-1-methylxanthine (IBMX) to ensure a complete block of PDE activity. Once the beads were sedimented (>30 min), the MTP's were analyzed in commercially available luminescence detection devices. The corresponding IC50 values of the compounds for inhibition of PDE activity were determined from the concentration-effect curves by means of non-linear regression.
(§1) The numbers of the compounds correspond to the numbers of the examples.

PDE4B1 = target: T2, PDE4B1 (Homo sapiens, UniProt Q07343); experiment: Inhibition of PDE4 activity (PDE4B1, SPA assay); format: biochemical; conditions: recombinant PDE4B1, 0.5 μM cAMP; read-out: PDE4B1 Inhibitory values measured as -logIC50 (converted)
T2 construct: made in house; host or cells: SF21 insect cells (baculovirus; virus made in SF9 cells, pCR-Bac vector)
Experimental: Method for Measuring Inhibition of PDE4 Activity
The PDE4B1 (GB no. L20966) was a gift of Prof. M. Conti (Stanford University, USA). It was amplified from the original plasmid (pCMV5) via PCR with primers Rb18 (5′-[…]-3′) and Rb10 (5′-[…]-3′) and cloned into the pCR-Bac vector (Invitrogen, Groningen, NL).
The recombinant baculovirus was prepared by means of homologous recombination in SF9 insect cells. The expression plasmids were cotransfected with Baculo-Gold DNA (Pharmingen, Hamburg) using a standard protocol (Pharmingen, Hamburg). Wt virus-free recombinant virus supernatants were selected using plaque assay methods. After that, high-titre virus supernatants were prepared by amplifying 3 times. PDE4B1 was expressed in SF21 cells by infecting 2×10^6 cells/ml with an MOI (multiplicity of infection) between 1 and 10 in the serum-free SF900 medium (GIBCO Life Technologies, Karlsruhe, Germany) The cells were cultured at 28° C. for 48-72 hours, after which they were pelleted for 5-10 min at 1000×g and 4° C.
The SF21 insect cells were resuspended, at a concentration of approx. 10^7 cells/ml, in ice-cold (4° C.) homogenization buffer (20 mM Tris, pH 8.2, containing the following additions: 140 mM NaCl, 3.8 mM KCl, 1 mM EGTA, 1 mM MgCl2, 10 mM β-mercaptoethanol, 2 mM benzamidine, 0.4 mM Pefablock, 10 μM leupeptin, 10 μM pepstatin A, 5 μM trypsin inhibitor) and disrupted by ultrasonication. The homogenate was then centrifuged for 10 min at 1000×g and the supernatant was stored at −80° C. until subsequent use (see below). The protein content was determined by the Bradford method (BioRad, Munich) using BSA (Bovine serum albumin) as the standard.
PDE4B1 activities were measured in a 96-well platform using SPA (scintillation proximity assay) yttrium silicate beads (RPNQ1050 from GE Healthcare). In a first step the PDE activity operated hydrolysis of either [^3H] cAMP (substrate) into […]. In a second step substrate and product were distinguished following addition of SPA yttrium silicate beads. […] Close proximity of bound [^3H] […] The test volume was 100 μl and finally contained 20 mM Tris buffer (pH 7.4), 0.1 mg/ml of BSA, 5 mM Mg^2+, 0.5 μM cAMP (including about 50,000 cpm of [3H]cAMP) as substrate, 1 μl of the respective substance dilution in DMSO and sufficient recombinant PDE (1000×g supernatant, see above) to ensure that 10-20% of the cAMP was converted under the said experimental conditions. […] After a preincubation of 5 min at 37° C., the reaction was commenced by adding the substrate (cAMP) and the assays were incubated for a further 15 min. Reactions were terminated by adding SPA beads (50 μl). In agreement with the manufacturer's instructions, the SPA beads had previously been resuspended in water, but were then diluted 1:3 (v/v) in water. This diluted solution further contained 3 mM IBMX (isobutylmethylxanthine) to ensure a complete block of PDE activity. Once the beads were sedimented (>30 min), the MTP's (micro titerplate) were analyzed in commercially available […]. The corresponding IC50 values of the compounds for inhibition of PDE4B1 activity were determined from the concentration-effect curves by means of non-linear regression.
as §1

T2 sequence (Q07343 whole entry): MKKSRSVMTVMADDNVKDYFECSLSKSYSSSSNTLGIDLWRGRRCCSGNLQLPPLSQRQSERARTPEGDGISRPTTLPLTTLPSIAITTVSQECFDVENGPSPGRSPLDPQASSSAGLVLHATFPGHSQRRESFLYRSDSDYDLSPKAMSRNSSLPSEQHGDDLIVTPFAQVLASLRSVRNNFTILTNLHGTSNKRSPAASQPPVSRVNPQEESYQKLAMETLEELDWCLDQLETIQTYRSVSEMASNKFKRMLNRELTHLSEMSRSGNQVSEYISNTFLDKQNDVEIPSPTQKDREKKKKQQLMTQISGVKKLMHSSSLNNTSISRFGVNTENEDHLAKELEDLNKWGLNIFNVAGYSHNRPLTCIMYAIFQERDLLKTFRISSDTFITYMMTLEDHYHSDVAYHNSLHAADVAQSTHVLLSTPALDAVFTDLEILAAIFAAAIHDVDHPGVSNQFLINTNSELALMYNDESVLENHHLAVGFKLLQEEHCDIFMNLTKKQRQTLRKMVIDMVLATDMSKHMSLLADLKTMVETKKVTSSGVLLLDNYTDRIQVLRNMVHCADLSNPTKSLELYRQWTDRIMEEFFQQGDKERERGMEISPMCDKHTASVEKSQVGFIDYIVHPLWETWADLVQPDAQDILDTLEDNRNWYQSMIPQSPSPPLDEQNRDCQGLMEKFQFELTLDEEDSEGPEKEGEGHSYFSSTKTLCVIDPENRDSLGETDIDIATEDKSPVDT

SMILES	IC50 (human PDE5) [nM]	IC50 (PDE4B1) [nM]
COc1ccc(C2=NN(C3CCN(C(=O)CCNC(=O)c4c[nH]c5c(-c6c(OCC7CC7)ccc7c6OCO7)ncnc45)CC3)C(=O)[C@@H]3CCCC[C@H]23)cc1OC [Example 76, 4-[5-(cyclopropylmethoxy)-1,3-benzodioxol-4-yl]-N-(3-{4-[(4aS,8aR)-4-(3,4-dimethoxyphenyl)-1-oxo-4a,5,6,7,8,8a-hexahydrophthalazin-2(1H)-yl]piperidin-1-yl}-3-oxopropyl)-5H-pyrrolo[3,2-d]pyrimidine-7-carboxamide]	1 to 10	1 to 10
COc1ccc(C2=NN(C3CCN(C(=O)[C@H](CO)NC(=O)c4c[nH]c5c(-c6c(OCC7CC7)ccc7c6OCO7)ncnc45)CC3)C(=O)[C@@H]3CCCC[C@H]23)cc1OC [Example 60, 4-[5-(cyclopropylmethoxy)-1,3-benzodioxol-4-yl]-N-[(2S)-1-{4-[(4aS,8aR)-4-(3,4-dimethoxyphenyl)-1-oxo-4a,5,6,7,8,8a-hexahydrophthalazin-2(1H)-yl]piperidin-1-yl}-3-hydroxy-1-oxopropan-2-yl]-5H-pyrrolo[3,2-d]pyrimidine-7-carboxamide]	1 to 10	< 1
COc1cc(OCC2CC2)c(-c2ncnc3c(C(=O)N[C@H](Cc4ccc(C(C)(C)C)cc4)C(=O)N4CCC(N5N=C(c6ccc(OC)c(OC)c6)[C@H]6CCCC[C@H]6C5=O)CC4)c(C)[nH]c23)cc1F [Example 5, N-[(2R)-3-(4-tert-butylphenyl)-1-{4-[(4aS,8aR)-4-(3,4-dimethoxyphenyl)-1-oxo-4a,5,6,7,8,8a-hexahydrophthalazin-2(1H)-yl]piperidin-1-yl}-1-oxopropan-2-yl]-4-[2-(cyclopropylmethoxy)-5-fluoro-4-methoxyphenyl]-6-methyl-5H-pyrrolo[3,2-d]pyrimidine-7-carboxamide]	1 to 10	1 to 10
COc1ccc(C2=NN(C3CCN(C(=O)[C@H](CCC(=O)N4CCCC4)NC(=O)c4c[nH]c5c(-c6c(OCC7CC7)ccc7c6OCO7)ncnc45)CC3)C(=O)[C@@H]3CCCC[C@H]23)cc1OC [Example 102, 4-[5-(cyclopropylmethoxy)-1,3-benzodioxol-4-yl]-N-[(2S)-1-{4-[(4aS,8aR)-4-(3,4-dimethoxyphenyl)-1-oxo-4a,5,6,7,8,8a-hexahydrophthalazin-2(1H)-yl]piperidin-1-yl}-1,5-dioxo-5-(pyrrolidin-1-yl)pentan-2-yl]-5H-pyrrolo[3,2-d]pyrimidine-7-carboxamide]	1 to 10	1 to 10
COc1ccc(C2=NN(C3CCN(C(=O)[C@H](Cc4ccc(O)cc4)NC(=O)c4c[nH]c5c(-c6c(OCC7CC7)ccc7c6OCO7)ncnc45)CC3)C(=O)[C@@H]3CCCC[C@H]23)cc1OC [Example 53, 4-[5-(cyclopropylmethoxy)-1,3-benzodioxol-4-yl]-N-[(2S)-1-{4-[(4aS,8aR)-4-(3,4-dimethoxyphenyl)-1-oxo-4a,5,6,7,8,8a-hexahydrophthalazin-2(1H)-yl]piperidin-1-yl}-3-(4-hydroxyphenyl)-1-oxopropan-2-yl]-5H-pyrrolo[3,2-d]pyrimidine-7-carboxamide]	1 to 10	< 1
COc1ccc(C2=NN(C3CCN(C(=O)[C@H](Cn4cccn4)NC(=O)c4c[nH]c5c(-c6c(OCC7CC7)ccc7c6OCO7)ncnc45)CC3)C(=O)[C@@H]3CCCC[C@H]23)cc1OC [Example 88, 4-[5-(cyclopropylmethoxy)-1,3-benzodioxol-4-yl]-N-[(2S)-1-{4-[(4aS,8aR)-4-(3,4-dimethoxyphenyl)-1-oxo-4a,5,6,7,8,8a-hexahydrophthalazin-2(1H)-yl]piperidin-1-yl}-1-oxo-3-(1H-pyrazol-1-yl)propan-2-yl]-5H-pyrrolo[3,2-d]pyrimidine-7-carboxamide]	1 to 10	1 to 10

Second part, the molecule after the results:

IC50 (human PDE5) [nM]	IC50 (PDE4B1) [nM]	SMILES
1 to 10	< 1	COc1ccc(C2=NN(C3CCN(C(=O)[C@@H](Cc4ccc(C(N)=O)cc4)NC(=O)c4c(C)[nH]c5c(-c6c(OCC7CC7)ccc7c6OCO7)ncnc45)CC3)C(=O)[C@@H]3CCCC[C@H]23)cc1OC [Example 11, N-[(2R)-3-(4-carbamoylphenyl)-1-{4-[(4aS,8aR)-4-(3,4-dimethoxyphenyl)-1-oxo-4a,5,6,7,8,8a-hexahydrophthalazin-2(1H)-yl]piperidin-1-yl}-1-oxopropan-2-yl]-4-[5-(cyclopropylmethoxy)-1,3-benzodioxol-4-yl]-6-methyl-5H-pyrrolo[3,2-d]pyrimidine-7-carboxamide]
< 1	1 to 10	COc1ccc(C2=NN(C3CCN(C(=O)[C@@H](Cc4cccc(C)c4)NC(=O)c4c[nH]c5c(-c6c(OCC7CC7)ccc7c6OCO7)ncnc45)CC3)C(=O)[C@@H]3CCCC[C@H]23)cc1OC [Example 20, 4-[5-(cyclopropylmethoxy)-1,3-benzodioxol-4-yl]-N-[(2R)-1-{4-[(4aS,8aR)-4-(3,4-dimethoxyphenyl)-1-oxo-4a,5,6,7,8,8a-hexahydrophthalazin-2(1H)-yl]piperidin-1-yl}-3-(3-methylphenyl)-1-oxopropan-2-yl]-5H-pyrrolo[3,2-d]pyrimidine-7-carboxamide]
< 1	1 to 10	COc1ccc(C2=NN(C3CCN(C(=O)[C@@H](Cc4ccccc4)NC(=O)c4c(C)[nH]c5c(-c6c(OCC7CC7)ccc7c6OCO7)ncnc45)CC3)C(=O)[C@@H]3CCCC[C@H]23)cc1OC [Example 26, 4-[5-(cyclopropylmethoxy)-1,3-benzodioxol-4-yl]-N-[(2R)-1-{4-[(4aS,8aR)-4-(3,4-dimethoxyphenyl)-1-oxo-4a,5,6,7,8,8a-hexahydrophthalazin-2(1H)-yl]piperidin-1-yl}-1-oxo-3-phenylpropan-2-yl]-6-methyl-5H-pyrrolo[3,2-d]pyrimidine-7-carboxamide]
